Four compounds from patent US9810700B1, “Fluorogenic calcium ion indicators and methods of using the same” (AAT Bioquest, Inc., priority 2017, dated 2017) can be followed below.

One may read the solubility as the dissolved amount per volume that the medium holds.

A short description of data set [1]: Water solubility comparison of PEGTA compounds and conventional BAPTA calcium indicator AM esters. The format is physicochemical. The conditions noted are these: PBS, AM ester; for solubility: aqueous buffer, 25° C., read-out: Water solubility at 25° C. (PEGTA Compound).
Data set [2] has as its system CHO cells stably transfected with muscarinic receptor 1. Briefly: Calcium flux assay, indicator AM esters loaded into cells, with or without probenecid. The class given is cell-based. The conditions noted are these: probenecid is not used.
Method: In some embodiments, the fluorescent ion indicators are used in a method to measure calcium flux. Cells (e.g., CHO cells) stably transfected with muscarinic receptor 1 are plated—e.g., at 60,000 cells per 100 μl per well in F12 with 5% FBS and 1% glutamine in a 96-well black wall/clear bottom Costar plate—and incubated (e.g., in 5% CO2 at 37° C. overnight). The growth medium is removed and the cells are incubated with a fluorescent ion indicator (e.g., with 100 μl/well of 1-8 μM Fluo-3 AM, Fluo-4 AM or one or more compounds selected from Compound 22, 23, 24, 28, 33, 34, 40, 41 or 188 in Hanks and HEPES buffer for 1 hour at 37° C., 5% CO2) with or without probenecid. Carbachol or ATP is added (e.g., 50 μl/well by NOVOstar, FlexStation or FLIPR) to achieve a final concentration.
Cells expressing a GPCR of interest that signals through calcium are pre-loaded with the indicator AM esters (such as Fluo-3 AM. Fluo-4 AM, Compounds 22, 23, 24, 28, 33, 34, 40, 41 or 188) which can cross cell membrane. […] When the sample cells are stimulated with screening compounds, the receptor triggers a release of intracellular calcium, which then greatly increases the fluorescence of the intracellular indicators. […]
For another data set, the system named is CHO-K1 cells. The experiment in a line: ATP-stimulated calcium response monitored with FlexStation. The class given is cell-based. The conditions noted are these: in the absence of probenecid; compared with Fluo-4 AM. As for the experimental part:
CHO-K1 cells are seeded overnight at 50,000 cells per 100 μl per well in a 96-well black wall/clear bottom costar plate. The growth medium is removed, and the cells are incubated with 100 μl of Compound 24 and Fluo-4 AM at 5 μM in Hanks and Hepes buffer in the presence of 2.5 mM probenecid for 1 hour at 37° C., 5% CO2 incubator. ATP (10 μM) is added by FlexStation to stimulate cell calcium, and the time-dependent calcium response is monitored with FlexStation.
CHO-K1 cells are seeded overnight at 50,000 cells per 100 μl per well in a 96-well black wall/clear bottom costar plate. The growth medium is removed, and the cells are incubated with 100 μl of Compound 24 and Fluo-4 AM at 5 μM in Hanks and Hepes buffer for 2 hours at 25° C. ATP (50 μL/well) is added by FlexStation to achieve the final desired concentrations.
CHO-K cells are seeded overnight at 50,000 cells per 100 μl per well in a 96-well black wall/clear bottom costar plate. The growth medium is removed, and the cells are incubated with 100 μl of Compound 24 and Fluo-4 AM at 5 μM in Hanks and Hepes buffer in the presence of 2.5 mM probenecid for 1 hour at 37° C., 5% CO2 incubator. ATP (10 μM) is added by FlexStation to stimulate cell calcium, and the time-dependent calcium response is monitored with FlexStation. […]

Each structure is given as a SMILES string. Converted amounts (≈) assume the structure as drawn.

For `CC(=O)OCOC(=O)CN(CCOCCOc1cc2c(cc1N(CC(=O)OCOC(C)=O)CC(=O)OCOC(C)=O)C(=O)OC21c2cc(F)c(OC(C)=O)cc2Oc2cc(OC(C)=O)c(F)cc21)CC(=O)OCOC(C)=O` [Compound 22], the solubility in data set [1] was 1.63 µg/mL (≈ 1.49 µM).
As for `CC(=O)OCOC(=O)CN(CCOCCOc1cc(-c2c3cc(F)c(=O)cc-3oc3cc(OCOC(C)=O)c(F)cc23)ccc1N(CC(=O)OCOC(C)=O)CC(=O)OCOC(C)=O)CC(=O)OCOC(C)=O` [Compound 24], the “fluorescence intensity compared with the corresponding BAPTA compounds” value in data set [2] is reported as “much greater than that of the corresponding BAPTA compounds”. Also, the “fluorescence intensity enhancement upon calcium stimulation” value with CHO-K1 cells is on record as “unexpected better fluorescence intensity enhancement”. In addition, the solubility in data set [1] amounted to 2.18 µg/mL (≈ 2.11 µM).
`CC(=O)OCOC(=O)CN(CCOCCOc1cc(C2=C3C(C)=CC(C)=[N+]3[B-](F)(F)n3c(C)cc(C)c32)ccc1N(CC(=O)OCOC(C)=O)CC(=O)OCOC(C)=O)CC(=O)OCOC(C)=O` [Compound 188]: in data set [1], the solubility was 1.29 µg/mL (≈ 1.34 µM).
For `CC(=O)OCOC(=O)CN(CC(=O)OCOC(C)=O)c1ccc(C)cc1OCCOc1cc(-c2c3cc(F)c(=O)cc-3oc3cc(OCOC(C)=O)c(F)cc23)ccc1N(CC(=O)OCOC(C)=O)CC(=O)OCOC(C)=O` [Fluo-4 AM, reference compound], the “capability of detecting calcium” value in data set [2] is “not capable of detecting calcium in some types of cells and tissues”. Also, in data set [1], the “Water solubility at 25° C. (BAPTA Compound)” value is recorded as 1.26 μg/ml PBS.
